Laboratory results from patent US20180127374A1, “BE[…] AS OPIOID RECEPTORS MODULATORS” (Purdue Pharma L.P., priority 2012, published 2018).
Read-outs that look alike come from different tables or passages of the source.

Legend:
[1] = molecular target: T1, μ-opioid receptor (Homo sapiens, UniProt P35372); test: μ-opioid receptor [35S]GTPγS functional assay; format: biochemical; design: purchased Perkin Elmer, Shelton, Conn; settings: for Emax: relative to the effect elicited by DAMGO
Method: [^35S]GTPγS functional assays were conducted using freshly thawed μ-receptor membranes (Perkin Elmer, Shelton, Conn.). Assay reactions were prepared by sequentially adding the following reagents to binding buffer (100 mM NaCl, 10 mM MgCl2, 20 mM HEPES, pH 7.4) on ice (final concentrations indicated): membrane protein (0.026 mg/mL), saponin ([…]), GDP ([…]) and [^35S]GTPγS (0.20 nM; Perkin Elmer, Shelton, Conn.). The prepared membrane solution (190 μl/well) was transferred to 96-shallow well polypropylene plates containing 10 μI of 20× concentrated stock solutions of the agonist [D-Ala^e, N-methyl-Phe^4 Gly-ol^5]-enkephalin (DAMGO) prepared in dimethyl sulfoxide (DMSO). Plates were incubated for 30 min at about 25° C. with shaking. […] Data were analyzed using the sigmoidal dose-response curve fitting functions in GraphPad PRISM v. 3.0, or an in-house function for non-linear, sigmoidal dose-response curve-fitting.
μ GTP EC50 is the concentration of a compound providing 50% of the maximal response for the compound at a μ-opioid receptor.
μ GTP Emax (%) is the maximal effect elicited by a compound relative to the effect elicited by DAMGO, a standard μ agonist. Generally, the μ GTP Emax (%) value measures the efficacy of a compound to treat or prevent pain or other Conditions.
Target sequence in this assay (P35372 whole entry, species assumed): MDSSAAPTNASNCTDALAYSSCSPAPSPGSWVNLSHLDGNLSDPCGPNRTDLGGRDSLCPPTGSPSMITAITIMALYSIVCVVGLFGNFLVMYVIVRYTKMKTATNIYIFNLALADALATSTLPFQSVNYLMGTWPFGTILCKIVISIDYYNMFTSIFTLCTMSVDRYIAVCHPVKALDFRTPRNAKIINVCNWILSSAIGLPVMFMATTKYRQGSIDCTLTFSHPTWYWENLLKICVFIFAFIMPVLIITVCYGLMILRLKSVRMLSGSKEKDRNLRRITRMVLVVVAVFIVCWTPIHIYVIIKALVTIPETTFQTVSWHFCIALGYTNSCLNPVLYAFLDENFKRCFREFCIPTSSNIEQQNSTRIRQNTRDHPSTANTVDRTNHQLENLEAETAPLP

[2] = molecular target: T1, μ-opioid receptor; test: μ-opioid receptor radioligand dose-displacement binding assay
Method: Radioligand dose-displacement binding assays for μ-opioid receptors used 0.3 nM [^3H]-diprenorphine (Perkin Elmer, Shelton, Conn.), with […] membrane protein/well in a final volume of […] binding buffer (10 mM MgCl2, 1 mM EDTA, 5% DMSO, 50 mM HEPES, pH 7.4). Reactions were carried out in the absence or presence of increasing concentrations of unlabeled naloxone. All reactions were conducted in 96-deep well polypropylene plates for 2 hr at room temperature. […] The data were analyzed using the one-site competition curve fitting functions in GraphPad PRISM™ v. 3.0 or higher (San Diego, Calif.), or an in-house function for one-site competition curve-fitting.
Target sequence in this assay (P35372 whole entry): as the sequence (P35372 whole entry, species assumed) above

[3] = molecular target: T2, human opioid receptor-like receptor (ORL-1) (Homo sapiens, UniProt P41146); test: ORL-1 receptor radioligand binding assay
T2 construct: host or cells: HEK-293
T2 sequence (P41146 whole entry): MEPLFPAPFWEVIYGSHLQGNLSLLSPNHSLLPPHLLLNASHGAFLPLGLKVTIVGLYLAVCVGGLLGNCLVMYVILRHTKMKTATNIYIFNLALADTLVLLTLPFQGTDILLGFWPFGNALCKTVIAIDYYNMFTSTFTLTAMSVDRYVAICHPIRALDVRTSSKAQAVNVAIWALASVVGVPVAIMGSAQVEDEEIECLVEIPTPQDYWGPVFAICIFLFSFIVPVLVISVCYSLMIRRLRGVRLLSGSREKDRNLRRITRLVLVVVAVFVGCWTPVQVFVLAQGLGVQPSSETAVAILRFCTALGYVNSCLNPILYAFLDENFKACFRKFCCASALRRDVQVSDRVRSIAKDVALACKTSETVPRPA
Method: Membranes from recombinant HEK-293 cells expressing the human opioid receptor-like receptor (ORL-1) (Perkin Elmer, Shelton, Conn.) were prepared by lysing cells in ice-cold hypotonic buffer (2.5 mM MgCl2, 50 mM HEPES, pH 7.4) (10 ml/10 cm dish) followed by homogenization with a tissue grinder/Teflon pestle. Membranes were collected by centrifugation at 30,000×g for 15 min at 4° C. and pellets resuspended in hypotonic buffer to a final concentration of 1-3 mg/ml. Protein concentrations were determined using the BioRad protein assay reagent with bovine serum albumen as standard. Aliquots of the ORL-1 receptor membranes were stored at −80° C.
The data from screening and dose-displacement experiments were analyzed using Microsoft Excel and the curve fitting functions in GraphPad PRISM™, v. 3.0 or higher, respectively, or an in-house function for one-site competition curve-fitting.

[4] = molecular target: T3, κ opioid receptor (Homo sapiens, UniProt P41145); test: κ-opioid receptor radioligand dose displacement binding assay; design: expressed in transfected cells; host or cells: HEK-293
T3 sequence (P41145 whole entry): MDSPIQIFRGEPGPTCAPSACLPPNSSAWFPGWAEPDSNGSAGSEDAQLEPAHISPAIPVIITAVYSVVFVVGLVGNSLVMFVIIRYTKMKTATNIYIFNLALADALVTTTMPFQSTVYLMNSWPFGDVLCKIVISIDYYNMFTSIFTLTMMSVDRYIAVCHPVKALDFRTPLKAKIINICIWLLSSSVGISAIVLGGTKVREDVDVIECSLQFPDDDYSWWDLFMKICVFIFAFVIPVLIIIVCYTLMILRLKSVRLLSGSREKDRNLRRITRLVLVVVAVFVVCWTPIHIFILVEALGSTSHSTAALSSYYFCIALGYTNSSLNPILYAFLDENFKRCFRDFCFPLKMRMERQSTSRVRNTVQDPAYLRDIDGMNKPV
Method: Membranes from recombinant HEK-293 cells expressing the human κ opioid receptor (κ) (cloned in house) were prepared by lysing cells in ice cold hypotonic buffer (2.5 mM MgCl2, 50 mM HEPES, pH 7.4) (10 mL/10 cm dish) followed by homogenization with a tissue grinder/Teflon pestle. Membranes were collected by centrifugation at 30,000×g for 15 min at 4° C. and pellets were resuspended in hypotonic buffer to a final concentration of 1-3 mg/mL. Protein concentrations were determined using the BioRad protein assay reagent with bovine serum albumen as standard. Aliquots of κ receptor membranes were stored at […]

[5] = molecular target: T3, κ opioid receptor; test: κ-opioid receptor [35S]GTPγS functional assay; format: biochemical; design: expressed in transfected cells; settings: for Emax: relative to the effect elicited by U69,593
Method: Functional [^35S]GTPγS binding assays were conducted as follows. κ opioid receptor membrane solution was prepared by sequentially adding final concentrations of 0.026 μg/μl κ membrane protein (in-house), 10 μg/mL saponin, 3 μM GDP and 0.20 nM [^35S]GTPγS to binding buffer (100 mM NaCl, 10 mM MgCl2, 20 mM HEPES, pH 7.4) on ice. The prepared membrane solution (190 μl/well) was transferred to 96-shallow well polypropylene plates containing 10 μl of 20× concentrated stock solutions of agonist prepared in DMSO. Plates were incubated for 30 min at a temperature of about 25° C. with shaking.
κ GTP EC50 is the concentration of a compound providing 50% of the maximal response for the compound at a κ receptor.
κ GTP Emax (%) is the maximal effect elicited by a compound relative to the effect elicited by U69,593.

[6] = molecular target: δ opioid receptor (Homo sapiens, UniProt P41143); test: δ-opioid receptor radioligand dose-displacement binding assay
Sequence of δ opioid receptor (P41143 whole entry): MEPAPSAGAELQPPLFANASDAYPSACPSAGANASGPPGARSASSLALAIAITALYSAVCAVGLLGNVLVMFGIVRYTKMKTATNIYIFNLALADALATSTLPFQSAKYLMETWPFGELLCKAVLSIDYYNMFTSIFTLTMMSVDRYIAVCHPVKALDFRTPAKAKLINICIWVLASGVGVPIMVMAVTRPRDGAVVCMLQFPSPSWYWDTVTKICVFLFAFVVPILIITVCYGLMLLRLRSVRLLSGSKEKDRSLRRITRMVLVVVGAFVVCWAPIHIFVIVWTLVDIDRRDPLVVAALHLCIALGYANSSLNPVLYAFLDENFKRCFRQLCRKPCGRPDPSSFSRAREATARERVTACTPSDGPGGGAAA
Method: δ-opioid Receptor Binding Assay Procedures were conducted as follows. Radioligand dose-displacement assays used 0.3 nM [^3H]-Naltrindole (Perkin Elmer, Shelton, Conn.; 33.0 Ci/mmole) with 5 μg membrane protein (Perkin Elmer, Shelton, Conn.) in a final volume of 500 μl binding buffer (5 mM MgCl2, 5% DMSO, 50 mM Trizma base, pH 7.4). Non-specific binding was determined in the presence of 25 μM unlabeled naloxone. All reactions were performed in 96-deep well polypropylene plates for 1 hr at a temperature of about 25° C. Binding reactions were terminated by rapid filtration onto 96-well Unifilter GF/C filter plates (Perkin Elmer, Shelton, Conn.) presoaked in 0.5% polyethylenimine (Sigma). Harvesting was performed using a 96-well tissue harvester (Perkin Elmer, Shelton, Conn.) followed by five filtration washes with 500 μl ice-cold binding buffer. Filter plates were subsequently dried at 50° C. for 1-2 hours. Fifty μl/well scintillation cocktail (Perkin Elmer, Shelton, Conn.) was added and plates were counted in a Packard Top-Count for 1 min/well.

[7] = μ-receptor membranes, read-out: GTPγS μ EC50
[8] = [3H]-diprenorphine displacement, read-out: Ki (nM) Opioid Receptor μ
[9] = [3H]-nociceptin displacement, HEK-293 membranes, read-out: Ki (nM) ORL-1
[10] = [3H]-U69,593 displacement, HEK-293 membranes, read-out: Ki (nM) Opioid Receptor κ
[11] = κ membrane protein (in-house), read-out: GTPγS κ EC50

Structure (SMILES) | EC50 [1] [nM] | Ki [2] [nM] | Ki [3] [nM] | Ki [4] [nM] | EC50 [5] [nM] | Emax [5] [%] | Ki [6] [nM] | Emax [1] [%] | EC50 [1, 7] [nM] | Ki [2, 8] [nM] | Ki [3, 9] [nM] | Ki [4, 10] [nM] | EC50 [5, 11] [nM]
COc1ccc2c(c1)[C@@]1(CCC[C@H](O)CO)CCN(CC3CC3)C(C2)[C@@H]1C [Compound 11, (2S)-5-((6S,11R)-3-(cyclopropylmethyl)-8-methoxy-11-methyl-1,2,3,4,5,6-hexahydro-2,6-methanobenzo[d]azocin-6-yl)pentane-1,2-diol] | > 20000 | 235 ± 17.3 | 13100 ± 1060 | 3.23 ± 0.5 | 210 | 81 | 4980 ± 456 |  |  |  |  |  | 
COC(=O)[C@H](C)NC(=O)CCC[C@]12CCN(CC3CC3)[C@H](Cc3ccc(O)cc31)[C@@H]2C [Compound 21, (S)-methyl 2-(4-((2R,6R,11R)-3-(cyclopropylmethyl)-8-hydroxy-11-methyl-1,2,3,4,5,6-hexahydro-2,6-methanobenzo[d]azocin-6-yl)butanamido)propanoate] |  |  |  |  |  | 67.5 | 8.81 ± 0.71 | 36.7 | 5.45 | 5.05 ± 1.34 | 2430 ± 718 | 0.13 ± 0.02 | 9.72
COC(=O)CCC[C@]12CCN(CC3CC3)[C@H](Cc3ccc(O)cc31)[C@@H]2C [Compound 23, methyl 4-((2R,6R,11R)-3-(cyclopropylmethyl)-8-hydroxy-11-methyl-1,2,3,4,5,6-hexahydro-2,6-methanobenzo[d]azocin-6-yl)butanoate] |  |  |  |  |  | 57 | 32.6 ± 2.97 | 18 | 2.33 | 1.16 ± 0.36 | 2240 ± 285 | 0.07 ± 0.01 | 5.19
